Results reported in publication PMC4184574, “Enantioselectivity in the cytochrome P450-dependent conversion of tegafur to 5-fluorouracil in human liver microsomes” (Pharmacology Research & Perspectives, 2013).

Experiments:
[1] = biological target: T1, CYP2A6 (Homo sapiens, UniProt P11509); experiment: 5-FU formation from FT enantiomers by cDNA-expressed CYP2A6 (kinetics, velocity, RAF contribution); settings: for CYP contribution: CYP2A6, RAF method, 30 μmol/L
T1 sequence (P11509 1-494): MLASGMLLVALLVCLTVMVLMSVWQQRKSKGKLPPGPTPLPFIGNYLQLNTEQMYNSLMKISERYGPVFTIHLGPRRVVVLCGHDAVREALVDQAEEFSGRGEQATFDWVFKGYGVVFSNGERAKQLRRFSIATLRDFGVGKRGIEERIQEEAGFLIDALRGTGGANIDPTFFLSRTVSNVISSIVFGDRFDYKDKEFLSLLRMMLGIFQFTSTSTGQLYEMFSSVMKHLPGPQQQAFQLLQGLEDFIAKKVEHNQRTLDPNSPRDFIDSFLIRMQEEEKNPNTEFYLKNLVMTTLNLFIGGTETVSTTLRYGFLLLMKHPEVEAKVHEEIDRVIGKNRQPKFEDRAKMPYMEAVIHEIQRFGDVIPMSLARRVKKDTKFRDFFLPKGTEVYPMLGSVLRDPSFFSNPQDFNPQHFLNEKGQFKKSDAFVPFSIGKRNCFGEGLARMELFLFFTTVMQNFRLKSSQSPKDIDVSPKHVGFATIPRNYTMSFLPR
Source text: Human hepatic 9000g supernatant (S9) and cytosolic fraction were purchased from XenoTech, LLC. (pooled preparations from 20 donors; Kansas City, KS). Human hepatic microsomes from five individuals (HG32, HH94, HH81, HH74, and HH31), a pooled preparation from 150 donors, and microsomes prepared from insect cell lines expressing CYP1A2, 2A6, 2B6, 2C8, 2C9, 2C19, 2D6, 2E1, and 3A4 were purchased from BD Gentest. Insect microsomes expressing only NADPH-P450 oxidoreductase and cytochrome b5 were also used as control. These enzymes were stored at −80°C until use.
Metabolic reaction by S9 and cytosol (each 2 mg protein/mL) was carried out in 100 mmol/L phosphate (pH 7.4) because TPase requires phosphate ions for catalyzing the reaction. In some cases, insect microsomes expressing recombinant CYP isoforms (20 pmol/mL) were added to the incubation mixtures in either 50, 100 mmol/L phosphate (pH 7.4) or 100 mmol/L Tris (pH 7.4), depending on supplier's recommendation. Microsomal protein concentrations of all cDNA-expressed CYPs were adjusted to 0.5 mg protein/mL by adding control microsomes expressing NADPH-P450 oxidoreductase and cytochrome b5. The reaction for the assay of FT metabolism was initiated by adding the substrate, following preincubation for 5 min at 37°C. After incubation at 37°C, the reaction was stopped by adding three volumes of ice-cold acetonitrile. The incubation times of microsomes, cytosol, and S9 were 15, 15, and 30 min, respectively. After centrifugation, the supernatant was collected and stored at −80°C until the determination of 5-FU. Because a small portion of FT is nonenzymatically converted to 5-FU, the content of 5-FU spontaneously formed was subtracted from total yield obtained after incubation to correct the activity. The spontaneous degradation of FT to 5-FU was evaluated using enzymes inactivated by heating them at 100°C for 5 min.
Concentration of 5-FU was determined using a LC/MS/MS system. The analytical system consisted of a HP1100 liquid chromatograph (Agilent Technologies, CA) coupled with an API4000 triple-quadrupole mass spectrometer (Applied Biosystems, CA) equipped with Turbo V source and ESI interface. Sample separation was performed using an Unison UK-Amino column (2.0 mm i.d. × 100 mm, 3 μm; Imtakt, Kyoto, Japan) at a flow rate of 0.2 mL/min at 40°C. The mobile phase consisted of 10 mmol/L ammonium acetate/acetonitrile 10:90 (v/v). […] For quantification of 5-FU, the calibration curves were linear over the range 2–1000 ng/mL.
Kinetic studies were performed using microsomes from five human livers (HG32, HH94, HH81, HH74, and HH31), cDNA-expressed CYP isoforms, or pooled human hepatic cytosol. In determining kinetic parameters, FT concentration ranged from 0.03 to 10 mmol/L. All reactions were performed in a linear range of 5-FU formation with respect to protein or CYP concentrations and incubation time.
Intrinsic clearance (CLint) was calculated as a ratio of V/S where V and S were the metabolite formation rate and the concentration of a probe substrate for CYP isoform, respectively, when the substrate concentration was well below the Km value. The RAF for each CYP isoform was calculated according to equation (3) (Venkatakrishnan et al. [2000]). [drawing 3] (3) n = 1A2, 2A6, 2C19, or 2E1.
The contribution of CYPn to the metabolism of R- and S-FT at their concentration of 30 μmol/L was subsequently calculated using equation (4). [drawing 4] (4) VCYPn = 5-FU formation rate in cDNA-expressed CYPn.

[2] = parameters: method as in Damle et al. [2001]; settings: ref Damle et al. [2001], cited from earlier work; for maximum concentration (Cmax) / Cmax: cancer patients after oral administration of UFT; for Cmax: read-out: maximum concentration (Cmax); for area under the plasma concentration–time curve / plasma elimination half-life: cancer patients orally given FT

SMILES	CYP contribution [1]	CLint ([1]; cDNA-expressed CYP2A6)	Vmax ([1]; cDNA-expressed CYP2A6)	maximum concentration (Cmax) [2]	Cmax [2]	area under the plasma concentration–time curve [2]	plasma elimination half-life [2]	Km ([1]; cDNA-expressed CYP2A6)
O=c1[nH]c(=O)n([C@@H]2CCCO2)cc1F [S-FT]	84.8%	4.9 nL min^−1 pmol^−1 CYP	5.6 ± 0.3 pmol min^−1 pmol^−1 CYP	3788 ng/mL	18.9 µM	49,300 ng h/mL	10.3 h	–
O=c1[nH]c(=O)n([C@H]2CCCO2)cc1F [R-FT]	87.6%	26 nL min^−1 pmol^−1 CYP	4.5 ± 0.1 pmol min^−1 pmol^−1 CYP	2957 ng/mL	14.8 µM	10,800 ng h/mL	2.4 h	170 ± 10 µM
